The NIST ThermoML archive (doi:10.1021/je300852v)
Numbers after ± are expanded uncertainties.

Assay: mean ionic activity coefficient (dimensionless); mn = molality of the nth substance listed, in mol/kg
Details: 298.15 K, 101 kPa, Liquid, 2 term dubye huckel

[Ca+2].[Cl-].[Cl-] [calcium chloride] + O
Details | mean ionic activity coefficient
m1 = 0.01 | 0.728 ± 0.001
m1 = 0.02 | 0.664 ± 0.001
m1 = 0.05 | 0.576 ± 0.001
m1 = 0.1 | 0.517 ± 0.001
m1 = 0.2 | 0.47 ± 0.001
m1 = 0.3 | 0.453 ± 0.001
m1 = 0.4 | 0.448 ± 0.001
m1 = 0.5 | 0.449 ± 0.001
m1 = 0.6 | 0.454 ± 0.001
m1 = 0.7 | 0.462 ± 0.001
m1 = 0.8 | 0.473 ± 0.001
m1 = 0.9 | 0.487 ± 0.001
m1 = 1 | 0.502 ± 0.001
m1 = 1.2 | 0.54 ± 0.001
m1 = 1.4 | 0.586 ± 0.001
m1 = 1.6 | 0.643 ± 0.001
m1 = 1.8 | 0.71 ± 0.001
m1 = 2 | 0.79 ± 0.001
m1 = 2.5 | 1.064 ± 0.001
m1 = 3 | 1.49 ± 0.001
